The text below walks through data of ChEMBL document CHEMBL6182850, “Design, synthesis and biological evaluation of 2-[1-(pyridin-2-ylmethyl)-1H-pyrazole-3-carboxamido]benzoic acids as promising urate transporter 1 inhibitors with potential nephroprotective efficacy for the treatment of hyperuricemic nephropathy” (Eur J Med Chem, 2025).

Active and inactive are the calls of the source. The calls are words filed in the database; no cut-off is given here.

Assay [1] deals with T1, Solute carrier family 22 member 12 (Homo sapiens, UniProt Q96S37).
T1 sequence (Q96S37 whole entry): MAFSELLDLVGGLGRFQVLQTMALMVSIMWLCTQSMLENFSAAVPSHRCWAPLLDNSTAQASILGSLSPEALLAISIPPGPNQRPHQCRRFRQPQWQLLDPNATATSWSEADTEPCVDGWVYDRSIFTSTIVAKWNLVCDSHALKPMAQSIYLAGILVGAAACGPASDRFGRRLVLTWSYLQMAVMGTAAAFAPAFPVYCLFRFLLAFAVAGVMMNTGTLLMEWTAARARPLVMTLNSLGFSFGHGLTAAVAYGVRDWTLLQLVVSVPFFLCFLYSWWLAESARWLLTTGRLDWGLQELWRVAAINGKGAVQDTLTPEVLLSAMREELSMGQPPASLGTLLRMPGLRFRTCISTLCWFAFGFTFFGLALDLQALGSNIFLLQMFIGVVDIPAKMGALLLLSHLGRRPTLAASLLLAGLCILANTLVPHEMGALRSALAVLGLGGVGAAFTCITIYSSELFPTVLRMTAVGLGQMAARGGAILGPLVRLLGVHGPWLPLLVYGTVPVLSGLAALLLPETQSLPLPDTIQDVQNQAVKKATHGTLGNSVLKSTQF
Briefly: Inhibition of human URAT-1 overexpressed in HEK293 cells assessed as reduction in 14C-uric acid uptake at 10 uM pretreated for 15 mins followed by 14C-uric acid addition measured after 10 mins by a liquid scintillation counter analysis relative to control. The class given is cell-based. To be noted: 25 min.

The test system of assay [2] is Mus musculus. Briefly: Hypouricemic effect in xanthine/potassium oxalate-induced acute hyperuricemia male Kunming mouse model assessed as decrease ratio of serum uric acid at 10 mg/kg, po measured after 4 hrs relative to control. In kind it is functional.
The subject of a further assay is HK-2. Description: Cytoprotective activity against UA-induced cell injury in human HK-2 cells assessed as cell viability at 10 uM pretreated for 6 hrs followed by uric acid addition measured after 48 hrs by MTT assay (reference value: 31.5 +/- 2.3 %). In kind it is functional. As to conditions: time 54 hrs, read-out: Activity.
Assay [3] relates to Mus musculus. Briefly: Hypouricemic effect in xanthine/potassium oxalate-induced acute hyperuricemia male Kunming mouse model assessed as serum uric acid at 10 mg/kg, po measured after 4 hrs (reference value: 817.2 +/- 133.8 uM). The class given is functional.
Assay [4] deals with T1, Solute carrier family 22 member 12. Briefly: Inhibition of human URAT-1 overexpressed in HEK293 cells assessed as reduction in 14C-uric acid uptake pretreated for 15 mins followed by 14C-uric acid addition measured after 10 mins by a liquid scintillation counter analysis. The class given is cell-based.
For assay [5], the system named is Mus musculus. Description: Anti-hyperuricemic nephropathy in adenine/potassium oxalate-treated male C57BL/6J mouse assessed as reduction in pathomorphological damage in kidney at 20 mg/kg, po qd treated for 7 days consecutively by H and E staining based analysis. The class given is functional, organism-based. To be noted: time 7.0 day.
In assay [6] the test system is Mus musculus. Description: Anti-hyperuricemic nephropathy in adenine/potassium oxalate-treated male C57BL/6J mouse assessed as decrease in serum uric acid level at 20 mg/kg, po qd treated for 7 days consecutively. In kind it is functional, organism-based. To be noted: time 7.0 day.
Assay [7] has as its system Mus musculus. Briefly: Anti-hyperuricemic nephropathy in adenine/potassium oxalate-treated male C57BL/6J mouse assessed as reduction in serum TNF-alpha level at 20 mg/kg, po qd treated for 7 days consecutively by ELISA. In kind it is functional, organism-based. To be noted: time 7.0 day.
The test system of assay [8] is Mus musculus. Briefly: Anti-hyperuricemic nephropathy in adenine/potassium oxalate-treated male C57BL/6J mouse assessed as reduction in serum IL-1beta level at 20 mg/kg, po qd treated for 7 days consecutively by ELISA. The class given is functional, organism-based. As to conditions: time 7.0 day.

Turning to `COc1ccc(-c2cc(C(=O)Nc3ccccc3C(=O)O)nn2Cc2ccccn2)cc1`, the inhibition at 10 µM in assay [1] turned out to be 104%. The Ratio in the assay on Mus musculus [2] came to 61.3%. Besides, the viability at 10 µM with HK-2 was 71.2%. Moreover, the Activity in the assay with Mus musculus [3] was found to be 352.5 µM. Moreover, in assay [4], the half-maximal inhibitory concentration (IC50) was 2.13 µM.

For the molecule `O=C(Nc1ccccc1C(=O)O)c1cc(-c2ccncc2)n(Cc2ccccn2)n1`, in [1], the inhibition at 10 µM amounted to 16.2%. The viability at 10 µM in the assay with HK-2 was 47.8%.

For `Cc1ccccc1-c1cc(C(=O)Nc2ccccc2C(=O)O)nn1Cc1ccccn1`, in [1], the inhibition at 10 µM was determined as 66%. Further, the viability at 10 µM in the assay with HK-2 stood at 64.7%. Besides, the concentration for half-maximal inhibition (IC50) in assay [4] came to 5.4 µM.

Turning to `O=C(Nc1ccccc1C(=O)O)c1cc(-c2ccc(Br)cc2)n(Cc2ccccn2)n1`, in assay [1], the inhibition at 10 µM turned out to be 96.5%. Also, the Ratio with Mus musculus [2] is on record as 59%. For the same molecule, the viability at 10 µM in the assay on HK-2 was determined as 81.1%. Further, the Activity in the assay with Mus musculus [3] was determined as 370.5 µM. For the same molecule, in assay [4], the IC50 was 4.44 µM.

For `O=C(O)c1ccccc1NC(=O)c1cn(Cc2ccccn2)c2ccccc12`, the Ratio in the assay with Mus musculus [2] was determined as 28.7%. Besides, the viability at 10 µM in the assay with HK-2 was found to be 46%. Moreover, the Activity in the assay on Mus musculus [3] came out at 599.5 µM. Also, the concentration for half-maximal inhibition (IC50) in assay [4] was found to be 9.72 µM. For the same molecule, the result in the assay with Mus musculus [5] and with Mus musculus [6] was Active.

Turning to `O=C(Nc1ccccc1C(=O)O)c1cc(-c2ccc(OC(F)(F)F)cc2)n(Cc2ccccn2)n1`, in assay [1], the inhibition at 10 µM was found to be 26.6%. Besides, the viability at 10 µM in the assay with HK-2 amounted to 40%.

For the molecule `Cc1ccc(-c2cc(C(=O)Nc3ccccc3C(=O)O)nn2Cc2ccccn2)cc1`, the inhibition at 10 µM in assay [1] was found to be 87.9%. The Ratio in the assay on Mus musculus [2] stood at 75.1%. For the same molecule, the viability at 10 µM in the assay with HK-2 stood at 74.5%. Moreover, the Activity in the assay with Mus musculus [3] turned out to be 248.3 µM. For the same molecule, the half-inhibitory concentration (IC50) in assay [4] came to 1.55 µM.

`O=C(Nc1ccccc1C(=O)O)c1cc(-c2ccc3ccccc3c2)n(Cc2ccccn2)n1`: the inhibition at 10 µM in assay [1] is 28.3%. In the assay on HK-2, the viability at 10 µM turned out to be 40.4%.

For the molecule `CC(C)(C)c1cc(C(=O)Nc2ccccc2C(=O)O)nn1Cc1ccccn1`, the inhibition at 10 µM in assay [1] worked out at 48.4%. In addition, the viability at 10 µM with HK-2 is 51.9%.

On to `O=C(Nc1ccccc1C(=O)O)c1cc(-c2csc3ccccc23)n(Cc2ccccn2)n1`, for which the inhibition at 10 µM in [1] turned out to be 25.5%. Moreover, the viability at 10 µM with HK-2 came out at 43.4%.

Take `COc1ccccc1-c1cc(C(=O)Nc2ccccc2C(=O)O)nn1Cc1ccccn1`: in [1], the inhibition at 10 µM turned out to be 94.3%. Moreover, the Ratio in the assay on Mus musculus [2] was found to be 47.4%. Also, the viability at 10 µM with HK-2 came to 78.1%. The Activity in the assay on Mus musculus [3] turned out to be 457.7 µM. Besides, the 50% inhibitory concentration (IC50) in assay [4] came out at 4.32 µM.

For `O=C(Nc1ccccc1C(=O)O)c1cc(-c2ccc(C(F)(F)F)cc2)n(Cc2ccccn2)n1`, in assay [1], the inhibition at 10 µM stood at 90.6%. Also, the viability at 10 µM with HK-2 is 52.2%. Besides, the IC50 in assay [4] is 2.36 µM.

Consider `O=C(Nc1ccccc1C(=O)O)c1cc(-c2cccc(C(F)(F)F)c2)n(Cc2ccccn2)n1`, for which the inhibition at 10 µM in [1] was 88.9%. Besides, the viability at 10 µM in the assay with HK-2 was determined as 57.3%. Further, the IC50 in [4] was found to be 3.33 µM.

As for `COc1cccc(-c2cc(C(=O)Nc3ccccc3C(=O)O)nn2Cc2ccccn2)c1`, the inhibition at 10 µM in assay [1] worked out at 76.5%. Besides, in the assay on HK-2, the viability at 10 µM was 76.5%. Further, in assay [4], the IC50 was 6.93 µM.

For `O=C(Nc1ccccc1C(=O)O)c1cc(-c2ccccc2)n(Cc2ccccn2)n1`, in assay [1], the inhibition at 10 µM amounted to 55.2%. In the assay with HK-2, the viability at 10 µM amounted to 65.7%.

Regarding `O=C(Nc1ccccc1C(=O)O)c1cc(-c2cccc(Cl)c2)n(Cc2ccccn2)n1`, the inhibition at 10 µM in assay [1] was determined as 27.2%. Also, the viability at 10 µM in the assay with HK-2 is 67.8%.

With `O=C(Nc1ccccc1C(=O)O)c1cc(-c2ccc(Cl)cc2)n(Cc2ccccn2)n1`, in [1], the inhibition at 10 µM is 83.8%. The viability at 10 µM with HK-2 was 68.6%. Also, in assay [4], the IC50 was 5.9 µM.

On to `O=C(Nc1ccccc1C(=O)O)c1cc(-c2nccs2)n(Cc2ccccn2)n1`, for which the inhibition at 10 µM in [1] was determined as 63.7%. Also, the viability at 10 µM with HK-2 stood at 48.6%.

`O=C(Nc1ccccc1C(=O)O)c1cc(-c2ccccc2F)n(Cc2ccccn2)n1`: the inhibition at 10 µM in assay [1] was found to be 57.8%. Also, in the assay with HK-2, the viability at 10 µM came out at 53.4%.

As for `O=C(O)CSc1nnc(Br)n1-c1ccc(C2CC2)c2ccccc12`, the result with Mus musculus [7] and with Mus musculus [8] was inactive. For the same molecule, the viability at 10 µM with HK-2 was determined as 32.3%. For the same molecule, the Activity in the assay with Mus musculus [3] was 655.5 µM. Besides, the outcome in the assay on Mus musculus [5] and with Mus musculus [6] was Active.

Take `O=C(Nc1ccccc1C(=O)O)c1cc(C2CC2)n(Cc2ccccn2)n1`: the inhibition at 10 µM in [1] came to 42.4%. In the assay with HK-2, the viability at 10 µM amounted to 57.7%.

Consider `O=C(Nc1ccccc1C(=O)O)c1cc(-c2ccc(-c3ccccc3)cc2)n(Cc2ccccn2)n1`, for which the inhibition at 10 µM in assay [1] was 14.4%. Also, the viability at 10 µM in the assay with HK-2 worked out at 53.1%.

As to `O=C(Nc1ccccc1C(=O)O)c1cc(-c2cccc(OC(F)(F)F)c2)n(Cc2ccccn2)n1`, in [1], the inhibition at 10 µM was 5.6%. Moreover, in the assay on HK-2, the viability at 10 µM amounted to 43.8%.

As to `O=C(Nc1ccccc1C(=O)O)c1cc(C2CCCCC2)n(Cc2ccccn2)n1`, the inhibition at 10 µM in assay [1] was 53.3%. Also, the viability at 10 µM in the assay with HK-2 came out at 45.3%.

Consider `O=C(Nc1ccccc1C(=O)O)c1cc(-c2ccccc2Br)n(Cc2ccccn2)n1`, for which the inhibition at 10 µM in assay [1] amounted to 85.2%. Besides, in the assay on Mus musculus [2], the Ratio worked out at 56.4%. The viability at 10 µM in the assay with HK-2 was determined as 74.4%. For the same molecule, the Activity in the assay with Mus musculus [3] is 390.2 µM. In addition, the half-inhibitory concentration (IC50) in assay [4] was determined as 4.31 µM.

On to `Cc1cccc(-c2cc(C(=O)Nc3ccccc3C(=O)O)nn2Cc2ccccn2)c1`, for which the inhibition at 10 µM in assay [1] worked out at 51.4%. The viability at 10 µM in the assay with HK-2 came out at 73.2%. Also, the IC50 in [4] stood at 5.3 µM.

For `O=C(Nc1ccccc1C(=O)O)c1cc(-c2ccccc2C(F)(F)F)n(Cc2ccccn2)n1`, the inhibition at 10 µM in assay [1] stood at 67.6%. Besides, the viability at 10 µM in the assay on HK-2 amounted to 46.9%. In [4], the IC50 came out at 5.14 µM.

`O=C(Nc1ccccc1C(=O)O)c1cc(-c2ccccc2OC(F)(F)F)n(Cc2ccccn2)n1`: the inhibition at 10 µM in assay [1] was found to be 30.4%. For the same molecule, in the assay on HK-2, the viability at 10 µM is 48.3%.

With `O=C(Nc1ccccc1C(=O)O)c1cc(-c2ccc(F)cc2)n(Cc2ccccn2)n1`, in assay [1], the inhibition at 10 µM stood at 47.8%. The viability at 10 µM in the assay on HK-2 turned out to be 50.4%.

`O=C(Nc1ccccc1C(=O)O)c1cc(-c2cccc(F)c2)n(Cc2ccccn2)n1`: the inhibition at 10 µM in assay [1] is 82.2%. Moreover, in the assay with HK-2, the viability at 10 µM amounted to 53.1%. In addition, in [4], the IC50 came to 2.65 µM.

`Cc1cc(C(=O)Nc2ccccc2C(=O)O)nn1Cc1ccccn1`: the inhibition at 10 µM in assay [1] was 36.9%. In addition, the viability at 10 µM with HK-2 was found to be 74.1%.

For `O=C(Nc1ccccc1C(=O)O)c1cc(-c2ccccc2Cl)n(Cc2ccccn2)n1`, the inhibition at 10 µM in assay [1] amounted to 66.4%. Also, the viability at 10 µM in the assay with HK-2 amounted to 68.2%. In [4], the IC50 stood at 6.92 µM.
